Assay [1] deals with T1, Sphingosine 1-phosphate receptor 5 (Homo sapiens, UniProt Q9H228). Briefly: Agonist activity at recombinant human S1PR5 expressed in CHO cell membranes assessed as [35S]GTP-gammaS binding measured after 1.5 hrs by TopCount scintillation counting method relative to S1P. Background: Binding of GTPγS marks nucleotide exchange on a G protein.
Assay [2] concerns the target T1, Sphingosine 1-phosphate receptor 5. The assay is described as follows: Agonist activity at recombinant human S1PR5 expressed in CHO cell membranes assessed as [35S]GTP-gammaS binding measured after 1.5 hrs by TopCount scintillation counting method.
Assay [3] addresses Sphingosine 1-phosphate receptor 3 (Homo sapiens, UniProt Q99500). The assay is described as follows: Agonist activity at recombinant human S1PR3 expressed in CHO cell membranes assessed as [35S]GTP-gammaS binding measured after 1.5 hrs by TopCount scintillation counting method.
Assay [4] has as its target T2, Sphingosine 1-phosphate receptor 1 (Homo sapiens, UniProt P21453). The assay is described as follows: Agonist activity at recombinant human S1PR1 expressed in CHO cell membranes assessed as [35S]GTP-gammaS binding measured after 1.5 hrs by TopCount scintillation counting method.
The target of assay [5] is Sphingosine 1-phosphate receptor 2 (Homo sapiens, UniProt O95136). The assay is described as follows: Agonist activity at recombinant human S1PR2 expressed in CHO cell membranes assessed as [35S]GTP-gammaS binding measured after 1.5 hrs by TopCount scintillation counting method.
The target in assay [6] is T3, Sphingosine 1-phosphate receptor 4 (Homo sapiens, UniProt O95977).
T3 sequence (O95977 whole entry): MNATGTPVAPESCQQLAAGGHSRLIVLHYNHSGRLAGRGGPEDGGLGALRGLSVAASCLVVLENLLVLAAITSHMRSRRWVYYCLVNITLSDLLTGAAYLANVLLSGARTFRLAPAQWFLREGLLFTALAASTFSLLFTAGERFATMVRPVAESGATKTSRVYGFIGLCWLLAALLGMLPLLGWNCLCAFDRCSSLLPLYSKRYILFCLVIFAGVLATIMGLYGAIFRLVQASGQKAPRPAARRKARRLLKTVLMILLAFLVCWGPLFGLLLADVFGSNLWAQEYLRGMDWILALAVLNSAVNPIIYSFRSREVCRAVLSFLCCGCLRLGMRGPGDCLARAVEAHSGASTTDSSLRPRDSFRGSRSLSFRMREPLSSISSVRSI
Briefly: Agonist activity at recombinant human S1PR4 expressed in CHO cell membranes assessed as [35S]GTP-gammaS binding measured after 1.5 hrs by TopCount scintillation counting method.

For assay [7], the target named is T4, Sphingosine 1-phosphate receptor 4 (Homo sapiens) (UniProt O95977).
T4 sequence (whole entry): T3 sequence (O95977 whole entry)
The assay is described as follows: Activation of human S1PR4 expressed in CHO cells assessed as suppression of forskolin-induced intracellular cAMP level at 1 to 10 uM measured after 15 mins by ELISA. It counts as functional, cell-based. On the technique in general: Changes in cAMP serve as a functional read-out for many G protein-coupled receptors.

The target of assay [8] is T3, Sphingosine 1-phosphate receptor 4. The assay is described as follows: Activation of human S1PR4 expressed in CHO cells assessed as suppression of forskolin-induced intracellular cAMP level measured after 15 mins by ELISA. It is filed as functional, cell-based.
Assay [9] deals with T4, Sphingosine 1-phosphate receptor 4 (Homo sapiens). The assay is described as follows: Activation of human S1PR4 expressed in CHO cells assessed as ERK1/2 phosphorylation at 10 uM treated under serum-free condition post 1 day serum starvation measured after 5 mins by Western blot analysis. It counts as cell-based. Background: In western blotting, separated proteins are transferred to a membrane and probed.

Assay [10] has the same target. The assay is described as follows: Activation of human S1PR4 expressed in CHO cells assessed as ERK1/2 phosphorylation at 100 nM treated under serum-free condition post 1 day serum starvation measured after 5 mins by Western blot analysis. It is filed as cell-based.
Assay [11] concerns the target T1, Sphingosine 1-phosphate receptor 5. The assay is described as follows: Activation of human S1PR5 expressed in CHO cells assessed as suppression of forskolin-induced intracellular cAMP level at 1 to 10 uM measured after 15 mins by ELISA. It counts as functional, cell-based.
Assay [12] addresses T2, Sphingosine 1-phosphate receptor 1. The assay is described as follows: Activation of human S1PR1 expressed in CHO cells assessed as suppression of forskolin-induced intracellular cAMP level at 1 to 10 uM measured after 15 mins by ELISA. It counts as functional, cell-based.
Assay [13] has the same target. Briefly: Activation of human S1PR1 expressed in CHO cells assessed as ERK1/2 phosphorylation at 1 to 10 uM treated under serum-free condition post 1 day serum starvation measured after 10 to 30 mins by Western blot analysis. It is filed as cell-based.

Calls of active or inactive are those of the source. The calls are words filed in the database; no cut-off is given here.

As usually defined, the EC50 is the concentration that produces a half-maximal response.

T1 sequence (Q9H228 whole entry): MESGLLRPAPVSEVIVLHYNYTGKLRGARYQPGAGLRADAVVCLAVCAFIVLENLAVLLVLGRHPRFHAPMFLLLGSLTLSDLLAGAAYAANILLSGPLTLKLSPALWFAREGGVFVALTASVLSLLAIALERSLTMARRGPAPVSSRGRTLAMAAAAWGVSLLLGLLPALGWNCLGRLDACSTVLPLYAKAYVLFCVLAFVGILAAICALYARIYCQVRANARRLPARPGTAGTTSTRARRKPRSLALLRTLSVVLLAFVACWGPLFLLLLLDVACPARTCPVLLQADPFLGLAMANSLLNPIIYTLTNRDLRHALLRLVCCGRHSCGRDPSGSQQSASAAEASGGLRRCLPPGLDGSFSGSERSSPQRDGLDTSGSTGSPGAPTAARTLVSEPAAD
T2 sequence (P21453 whole entry): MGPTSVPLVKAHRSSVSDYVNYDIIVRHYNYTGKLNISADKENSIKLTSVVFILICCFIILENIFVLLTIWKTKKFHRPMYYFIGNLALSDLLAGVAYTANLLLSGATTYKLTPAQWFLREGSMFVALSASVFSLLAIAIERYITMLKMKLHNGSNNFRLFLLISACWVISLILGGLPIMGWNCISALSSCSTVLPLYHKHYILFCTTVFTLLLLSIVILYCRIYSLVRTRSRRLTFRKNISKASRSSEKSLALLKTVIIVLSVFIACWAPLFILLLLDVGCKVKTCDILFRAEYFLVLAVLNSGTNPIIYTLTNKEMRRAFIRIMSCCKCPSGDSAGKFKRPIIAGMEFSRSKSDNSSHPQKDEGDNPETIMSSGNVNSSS
Chain of Sphingosine 1-phosphate receptor 2 (O95136 whole entry): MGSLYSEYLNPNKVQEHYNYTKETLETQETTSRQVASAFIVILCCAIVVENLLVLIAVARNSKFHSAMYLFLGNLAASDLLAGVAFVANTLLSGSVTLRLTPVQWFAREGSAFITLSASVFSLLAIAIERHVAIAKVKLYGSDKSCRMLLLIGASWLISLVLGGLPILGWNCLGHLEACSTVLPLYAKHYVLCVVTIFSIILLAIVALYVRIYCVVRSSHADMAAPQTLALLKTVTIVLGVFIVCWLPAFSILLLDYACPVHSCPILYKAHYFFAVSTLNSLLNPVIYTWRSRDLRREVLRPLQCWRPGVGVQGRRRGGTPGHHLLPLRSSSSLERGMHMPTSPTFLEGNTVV
Chain of Sphingosine 1-phosphate receptor 3 (Q99500 whole entry): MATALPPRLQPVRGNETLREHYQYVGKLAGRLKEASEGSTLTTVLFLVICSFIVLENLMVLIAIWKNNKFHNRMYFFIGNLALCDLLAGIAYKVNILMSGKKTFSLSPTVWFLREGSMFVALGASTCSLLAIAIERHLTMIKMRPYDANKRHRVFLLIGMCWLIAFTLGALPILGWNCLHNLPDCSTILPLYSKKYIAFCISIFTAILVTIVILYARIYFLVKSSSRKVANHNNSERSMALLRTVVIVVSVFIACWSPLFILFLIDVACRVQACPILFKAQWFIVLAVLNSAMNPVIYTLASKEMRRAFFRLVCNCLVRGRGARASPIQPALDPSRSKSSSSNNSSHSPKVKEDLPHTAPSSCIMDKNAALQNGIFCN

Regarding `O=C(O)CCNCc1cc2c(-c3ccc4ccccc4c3)cccc2s1`, the Efficacy in assay [1] stood at 75%. Besides, the EC50 in assay [2] is 31 nM; in assay [3], more than 100000 nM; in assay [4], more than 100000 nM; in assay [5], more than 100000 nM; in assay [6] it was 433 nM.

As to `O=C(O)CCCNCc1cc2c(-c3ccc4ccccc4c3)cccc2s1`, in assay [1], the Efficacy amounted to 69%. For the same compound, the EC50 in assay [2] was 60 nM; in [3] it was more than 100000 nM; in assay [4], more than 100000 nM; in [5] it was more than 100000 nM; in [6], 211 nM.

As to `O=C(O)CCCNCc1cc2cccc(-c3ccc4ccccc4c3)c2s1`, the result in assay [7], in assay [9] and in assay [10] was Active. The Efficacy in assay [1] was 24%. For the same compound, the EC50 in assay [2] is 370 nM; in [3], more than 100000 nM; in [8], 154 nM; in assay [4] it was more than 100000 nM; in assay [5] it was more than 100000 nM; in assay [6], 200 nM.

For the compound `O=C(O)C1CN(Cc2cc3cc(-c4ccc5ccccc5c4)ccc3s2)C1`, the result in assay [11], in [12] and in [13] was Active. In addition, the Efficacy in assay [1] was 50%. Also, the EC50 is 22 nM in assay [2]; more than 100000 nM in assay [3]; more than 100000 nM in [4]; more than 100000 nM in assay [5]; more than 100000 nM in assay [6].

In the case of `O=C(O)CCCCNCc1cc2c(-c3ccc4ccccc4c3)cccc2s1`, the Efficacy in [1] worked out at 47%. In addition, the EC50 in assay [2] is 152 nM; in [3], more than 100000 nM; in [4], more than 100000 nM; in assay [5], more than 100000 nM; in assay [6] it was 1080 nM.

On to `O=C(O)CNCc1cc2c(-c3ccc4ccccc4c3)cccc2s1`, for which, in assay [1], the Efficacy was 47%. Also, the concentration for a half-maximal effect (EC50) in assay [2] was 51 nM; in assay [3] it was more than 100000 nM; in assay [4], more than 100000 nM; in [5], more than 100000 nM; in assay [6], 640 nM.

As to `O=C(O)c1ccc(CNCc2cc3c(-c4ccc5ccccc5c4)cccc3s2)cc1`, the Efficacy in assay [1] turned out to be 53%. The EC50 was 356 nM in assay [2]; more than 100000 nM in assay [3]; more than 100000 nM in assay [4]; more than 100000 nM in assay [5]; more than 100000 nM in [6].

For the origin of these results see ChEMBL document CHEMBL3875189, “A benzo[b]thiophene-based selective type 4 S1P receptor agonist” (Bioorg Med Chem Lett, 2017).
